ChEMBL document CHEMBL1144789, “Identification of fredericamycin E from Streptomyces griseus: Insights into fredericamycin A biosynthesis highlighting carbaspirocycle formation” (J Nat Prod, 2008)

Experiments:
Type in all cases: functional, cell-based
DU-145 = assay: Cytotoxicity against human Du145 cells by calcein AM/[…] fluorometric detection
A549 = assay: Cytotoxicity against human A549 cells by calcein AM/[…] fluorometric detection
HT-29 = assay: Cytotoxicity against human HT29 cells by calcein AM/[…] fluorometric detection
MCF7 = assay: Cytotoxicity against human MCF7 cells by calcein AM/[…] fluorometric detection
HCT-15 = assay: Cytotoxicity against human HCT15 cells by calcein AM/[…] fluorometric detection
[1] = Cytotoxicity against mouse P388D1 cells by calcein AM/[…] fluorometric detection

SMILES	EC50 (DU-145)	EC50 (A549)	EC50 (HT-29)	EC50 (MCF7)	EC50 (HCT-15)	EC50 [1]
C/C=C/C=C/c1cc2cc3c(c(O)c2c(=O)[nH]1)[C@@]1(CC3)C(=O)C(=O)c2c(c(O)c3c(O)c(OC)cc(O)c3c2O)C1=O [FDM E]	8.1 µM	4.1 µM	3.6 µM	7.3 µM	4 µM	0.17 µM
C/C=C/C=C/c1cc2cc3c(c(O)c2c(=O)[nH]1)[C@@]1(CC3)C(=O)c2c(O)c3c(c(O)c2C1=O)C(=O)C(OC)=CC3=O [FDM A]	2.7 µM	1.8 µM	0.57 µM	0.36 µM	2.4 µM	0.05 µM
